Assay results from patent publication US8101581B2, “Use of D-ribose to treat cardiac arrhythmias” (Bioenergy, Inc., priority 2007, dated 2012).
Entries after “also recorded” stand apart in the source; their conditions may differ. Like-named read-outs stand apart in the source and are kept apart here.

Tests used:
atrial fibrillation = assay: D-ribose administered to patients with a diagnosis of atrial fibrillation; type: in vivo, human
Protocol: Eight patients with a diagnosis of atrial fibrillation were administered D-ribose. It can be seen from the above data that not all patients are completely and immediately relieved of atrial fibrillation. […] Therefore, it is recommended that patients ingest 10 to 15 grams of D-ribose daily.

[1] = cited from earlier work

O=C[C@H](O)[C@H](O)[C@H](O)CO [D-ribose]
Relief? (atrial fibrillation; Patient 1, duration of AT Recent, daily amount N/R, other medication CoQ): complete, immediate | Relief? (atrial fibrillation; Patient 2, duration, daily amount and other medications N/R): complete, immediate | Relief? (atrial fibrillation; Patient 3, 5 grams D-ribose daily): only partial relief; also recorded: “helped” | Relief? (atrial fibrillation; Patient 4, 5 grams D-ribose daily): delayed relief; also recorded: complete, within two | Relief? (atrial fibrillation; Patient 5, duration 20 years, 10 grams D-ribose daily, CoQ, L-carnitine, Mg): complete and immediate relief | Relief? (atrial fibrillation; Patient 6, 10-15 grams D-ribose daily): complete and immediate relief; also recorded: “practically | Relief? (atrial fibrillation; Patient 7, 5 grams D-ribose daily): complete, immediate | Side effects (atrial fibrillation; administration of low doses of D-ribose): no side effects | Persistence of relief of atrial fibrillation (atrial fibrillation; patients on continued D-ribose): more than a year | Digestive symptoms ([1]; dose of five grams, most people): without experiencing these digestive symptoms | Digestive symptoms ([1]; doses over about eight grams, many people): flatulence and diarrhea
